Test results from US20200405868A1, “GEL-FORMING POLYPEPTIDES” (priority 2018, published 2020).
“Also recorded” adds a separate entry of the source. Where two headings read alike, the source gives them in different places. Where a SMILES comes first, the peptide text is derived from it. Where no end group is shown, it is not given here. [ ]: non-standard residue; d: D form. The star is where a group is joined. dPhe(4-Cl) = N[C@H](Cc1ccc(Cl)cc1)C(=O)O; d2Nal = N[C@H](Cc1ccc2ccccc2c1)C(=O)O; Palmitoyl = CCCCCCCCCCCCCCCC(=O)*; dCit = NC(=O)NCCC[C@@H](N)C(=O)O; d3Pal = N[C@H](Cc1cccnc1)C(=O)O

What was measured:
[1] = target: T1, GnRH receptor (GnRHR or LHRHR) (Homo sapiens, UniProt P30968); assay: GnRHR calcium flux assay (Discoverx), antagonistic; type: cell-based; conditions: for IC50: LHRH-stimulated
T1 sequence (P30968 1-328): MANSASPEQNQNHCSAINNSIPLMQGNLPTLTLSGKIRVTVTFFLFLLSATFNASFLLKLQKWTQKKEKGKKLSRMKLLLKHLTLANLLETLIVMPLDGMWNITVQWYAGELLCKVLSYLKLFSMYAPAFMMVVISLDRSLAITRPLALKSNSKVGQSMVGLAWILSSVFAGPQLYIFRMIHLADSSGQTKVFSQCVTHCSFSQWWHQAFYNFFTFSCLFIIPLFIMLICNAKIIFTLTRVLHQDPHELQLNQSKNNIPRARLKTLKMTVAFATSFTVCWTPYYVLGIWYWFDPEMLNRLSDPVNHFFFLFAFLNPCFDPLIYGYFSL
Text: To study the bioactivities of conjugated and mutated peptides, we employed in vitro receptor-activation assays with cultured cells expressing recombinant melanocortin receptor 1 (MC1R), melanocortin receptor 4 (MC4R), CRH receptor 2 (CRHR2), PTH receptor 1 (PTHR1), or kappa opioid receptor (OPRK1). The agonistic activities toward MC1R, MC4R, CRHR2, PTHR1, and OPRK1 were assyed with an MC1R cAMP assay, an MC4R cAMP assay, a CRHR2 cAMP assay, a PTHR1 cAMP assay and an OPRK1 cAMP assay from Discoverx Inc. (Fremont, Calif.), respectively. The antagonistic activities toward bradykinin receptor 2 (BDKRB2) and GnRH receptor (GnRHR or LHRHR) were assayed with a BDKRB2 arrestin assay and a GnRHR calcium flux assay from Discoverx, respectively.
For the analysis of calcium flux, cell lines were expanded from freezer stocks and seeded in a total volume of 20 μL into black-walled, clear-bottom, Poly-D-lysine coated 384-well microplates and incubated at 37 C for the appropriate time prior to testing. Assays were performed in 1× Dye Loading Buffer consisting of 1× Dye, 1× Additive A and 2.5 mM Probenecid in HBSS/20 mM Hepes. Cells were loaded with dye prior to testing. Media was aspirated from cells and replaced with 20 μL Dye Loading Buffer. Cells were incubated for 30-60 minutes at 37 C. For agonist determination, cells were incubated with sample to induce response. After dye loading, cells were removed from the incubator and 10 μL HBSS/20 mM Hepes was added. Vehicle was included in the buffer when performing agonist dose curves to define the EC80 for antagonist assays. Cells were incubated for 30 minutes at room temperature in the dark to equilibrate plate temperature. Intermediate dilution of sample stocks was performed to generate 4× sample in assay buffer. Compound agonist activity was measured on a FLIPR Tetra (MDS), and calcium mobilization was monitored for 2 minutes and 10 μL 4× sample in HBSS/20 mM Hepes was added to the cells 5 seconds into the assay.
For antagonist determination, cells were pre-incubated with sample followed by agonist challenge at the EC80 concentration. Intermediate dilution of sample stocks was performed to generate 3× sample in assay buffer. After dye loading, cells were removed from the incubator and 10 μL 3× sample was added. Cells were incubated for 30 minutes at room temperature in the dark to equilibrate plate temperature. Vehicle concentration was 1%. Compound antagonistic activity was measured on a FLIPR Tetra (MDS), and calcium mobilization was monitored for 2 minutes and 10 μL EC80 agonist in HBSS/20 mM Hepes was added to the cells 5 seconds into the assay. The compound activity was analyzed using a CBIS data analysis suite (ChemInnovation, CA), and percentage activity is calculated using the following formula: % Activity=100%×(mean RFU of test sample−mean RFU of vehicle control)/(mean MAX RFU control ligand−mean RFU of vehicle control). For antagonist assays, percentage inhibition is calculated using the following formula: % Inhibition=100%×(1−(mean RFU of test sample−mean RFU of vehicle control)/(mean RFU of EC80 control−mean RFU of vehicle control)).

[2] = Compound gel-forming ability in water (visual inspection, tube tapping assay, tilted tube assay); type: physicochemical; conditions: for gel formation at 6% w/w: 6% w/w in water; for gel formation at 11% w/w: 11% w/w in water; for Physical property at 11% w/w: Table 1, 11% w/w in aqueous solution, room temperature;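 on all read-outs here: peptides mixed with de-ionized water at about 22-25 °C, judged after 20 min by eye plus tube tapping (10 taps, moves counted) and 90° tilt mobility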
[3] = target: melanocortin receptor 1 (MC1R) (Homo sapiens, UniProt Q01726); assay: MC1R cAMP assay (Discoverx), agonistic; type: cell-based
Sequence of melanocortin receptor 1 (MC1R) (Q01726 whole entry): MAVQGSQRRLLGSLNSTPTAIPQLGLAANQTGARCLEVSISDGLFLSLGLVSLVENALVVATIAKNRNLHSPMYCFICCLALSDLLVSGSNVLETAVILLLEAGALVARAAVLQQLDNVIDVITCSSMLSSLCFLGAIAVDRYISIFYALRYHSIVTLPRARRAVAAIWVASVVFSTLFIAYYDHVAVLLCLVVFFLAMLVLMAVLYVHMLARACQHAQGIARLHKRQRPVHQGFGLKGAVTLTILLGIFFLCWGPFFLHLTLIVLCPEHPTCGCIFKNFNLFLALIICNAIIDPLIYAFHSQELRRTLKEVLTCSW
Procedure: The agonistic activities toward MC1R, MC4R, CRHR2, PTHR1, and OPRK1 were assyed with an MC1R cAMP assay, an MC4R cAMP assay, a CRHR2 cAMP assay, a PTHR1 cAMP assay and an OPRK1 cAMP assay from Discoverx Inc. (Fremont, Calif.), respectively. The antagonistic activities toward bradykinin receptor 2 (BDKRB2) and GnRH receptor (GnRHR or LHRHR) were assayed with a BDKRB2 arrestin assay and a GnRHR calcium flux assay from Discoverx, respectively.
For the analysis of Gs-coupled cAMP production, cAMP Hunter cell lines were expanded from freezer stocks, and cells were seeded in a total volume of 20 μL into white walled, 384-well microplates and incubated at 37 C for the appropriate time prior to testing. The cAMP modulation was determined using the DiscoverX HitHunter cAMP XS+ assay. For agonistic activity determination, cells were incubated with sample to induce response. Media was aspirated from cells and replaced with 15 μL 2:1 HBSS/10 mM Hepes: cAMP XS+ Ab reagent. Intermediate dilution of sample stocks was performed to generate 4× sample in assay buffer, and 5 μL of 4× sample was added to cells and incubated at 37 C or room temperature for 30 or 60 minutes. Vehicle concentration was 1%. The compound activity was analyzed using a CBIS data analysis suite (ChemInnovation, CA). For Gs-coupled agonistic assays, percentage activity is calculated using the following formula: % Activity=100%×(mean RLU of test sample−mean RLU of vehicle control)/(mean RLU of MAX control−mean RLU of vehicle control).

| Compound | Max Activity % of positive control [1] | gel formation at 6% w/w [2] | gel formation at 11% w/w [2] | gel formation in aqueous solution, 6% ([2]; Table 3, 6% w/w) | gel formation in aqueous solution, 11% ([2]; Table 3, 11% w/w) | Physical property at 11% w/w [2] | other results |
| --- | --- | --- | --- | --- | --- | --- | --- |
| CC(=O)N[C@H](Cc1ccc2ccccc2c1)C(=O)N[C@H](Cc1ccc(Cl)cc1)C(=O)N[C@H](Cc1cccnc1)C(=O)N[C@@H](CO)C(=O)N[C@@H](Cc1ccc(O)cc1)C(=O)N[C@H](CCCNC(N)=O)C(=O)N[C@@H](CC(C)C)C(=O)N[C@@H](CCCNC(=N)N)C(=O)N1CCC[C@H]1C(=O)N[C@H](C)C(N)=O [Cetrorelix, reference compound] (Ac-[d2Nal][dPhe(4-Cl)][d3Pal]SY[dCit]LRP[dA]-NH2) | 91.4 % of positive control |  |  |  |  |  | IC50 [1]: 0.08 nM |
| CCCCCCCCCCCCCCCC(=O)N[C@@H](CCCCN)C(=O)N[C@H](C(=O)N[C@@H](CCC(N)=O)C(=O)N[C@@H](CCCCN)C(=O)N[C@@H](CC(C)C)C(=O)N[C@@H](CO)C(=O)N[C@@H](C)C(=O)N1CCC[C@H]1C(=O)N[C@H](C(=O)N[C@@H](CC(=O)O)C(=O)N1CCC[C@H]1C(=O)N[C@@H](CO)C(=O)N[C@@H](CO)C(=O)N1CCC[C@H]1C(=O)N[C@@H](Cc1c[nH]cn1)C(=O)N[C@@H](CO)C(=O)N[C@@H](Cc1ccc(O)cc1)C(=O)NCCOCCOCC(=O)N[C@H](Cc1ccc2ccccc2c1)C(=O)N[C@H](Cc1ccc(Cl)cc1)C(=O)N[C@H](Cc1cccnc1)C(=O)N[C@@H](CO)C(=O)N[C@@H](Cc1ccc(O)cc1)C(=O)N[C@H](CCCNC(N)=O)C(=O)N[C@@H](CC(C)C)C(=O)N[C@@H](CCCNC(=N)N)C(=O)N1CCC[C@H]1C(=O)N[C@H](C)C(N)=O)C(C)C)C(C)C [SEQ ID NO:202] | 135 % of positive control | semisolid gel | semisolid gel | SS (SS for semisolid gel) | SS (SS for semisolid gel) |  | propensity to form gels, chimeric or mutated polypeptides, 3% ([2]; Table 5, 3% w/w): AS/IS; propensity to form gels, chimeric or mutated polypeptides, 6% ([2]; Table 5, 6% w/w): SS (An ability to form semisolid gel is represented by an SS); propensity to form gels, chimeric or mutated polypeptides, 11% ([2]; Table 5, 11% w/w): SS (An ability to form semisolid gel is represented by an SS) |
| CCCCCCCCCCCCCCCC(=O)N[C@@H](Cc1c[nH]cn1)C(=O)N[C@@H](CO)C(=O)N[C@@H](Cc1ccc(O)cc1)C(=O)N[C@H](Cc1ccc2ccccc2c1)C(=O)N[C@H](Cc1ccc(Cl)cc1)C(=O)N[C@H](Cc1cccnc1)C(=O)N[C@@H](CO)C(=O)N[C@@H](Cc1ccc(O)cc1)C(=O)N[C@H](CCCNC(N)=O)C(=O)N[C@@H](CC(C)C)C(=O)N[C@@H](CCCNC(=N)N)C(=O)N1CCC[C@H]1C(=O)N[C@H](C)C(N)=O [SEQ ID NO:203, Pal-HSY-(D-Nal)-(D-Cpa)-(D-Pal)-SY-(D-Cit)-LRP-(D-Ala)-NH2] (Palmitoyl-HSY[d2Nal][dPhe(4-Cl)][d3Pal]SY[dCit]LRP[dA]-NH2) | 109 % of positive control |  |  |  |  |  | IC50 [1]: < 0.51 nM |
| CCCCCCCCCCCCCCCC(=O)N[C@@H](Cc1c[nH]cn1)C(=O)N[C@@H](CO)C(=O)N[C@@H](Cc1ccc(O)cc1)C(=O)N[C@@H](CO)C(=O)N[C@@H](CCCC)C(=O)N[C@@H](CCC(=O)O)C(=O)N[C@@H](Cc1c[nH]cn1)C(=O)N[C@H](Cc1ccccc1)C(=O)N[C@@H](CCCNC(=N)N)C(=O)N[C@@H](Cc1c[nH]c2ccccc12)C(=O)NCC(=O)N[C@@H](CCCCN)C(=O)N1CCC[C@H]1C(=O)N[C@H](C(N)=O)C(C)C [SEQ ID NO:224, Pal-HSYS-Nle-EH-(D-Phe)-RWGKPV-NH2] |  |  |  |  |  |  | EC50 [3]: subnanomolar; Max Activity % of positive control [3]: 120 % of positive control; EC50 ([3]; read-out: EC50): < 0.05 nM |
| CCCCCCCCCCCCCCCC(=O)N[C@@H](Cc1c[nH]cn1)C(=O)N[C@@H](CO)C(=O)N[C@@H](Cc1ccc(O)cc1)C(=O)N[C@@H](CO)C(=O)N[C@@H](CCSC)C(=O)N[C@@H](CCC(=O)O)C(=O)N[C@@H](Cc1c[nH]cn1)C(=O)N[C@@H](Cc1ccccc1)C(=O)N[C@@H](CCCNC(=N)N)C(=O)N[C@@H](Cc1c[nH]c2ccccc12)C(=O)NCC(=O)N[C@@H](CCCCN)C(=O)N1CCC[C@H]1C(=O)N[C@H](C(=O)NCC(=O)N[C@@H](CCCCN)C(=O)N[C@@H](CCCCN)C(=O)N[C@@H](CCCNC(=N)N)C(=O)N[C@@H](CCCNC(=N)N)C(=O)N1CCC[C@H]1C(=O)N[C@H](C(=O)N[C@@H](CCCCN)C(=O)N[C@H](C(=O)N[C@@H](Cc1ccc(O)cc1)C(=O)N1CCC[C@H]1C(=O)O)C(C)C)C(C)C)C(C)C [SEQ ID NO:226] |  |  |  |  | SS (SS for semisolid gel) |  | propensity to form gels, chimeric or mutated polypeptides, 11% ([2]; Table 5, 11% w/w): SS (An ability to form semisolid gel is represented by an SS); EC50 [3]: nanomolar; Max Activity % of positive control [3]: 115 % of positive control |
| YVMGHFRWDRF-NH2 [SEQ ID NO:64, reference compound] |  | stay soluble | form self-assembling gels; also recorded: liquid gel | AS/IS (AS/IS for aqueous solution or insoluble) |  |  | propensity to form gels, wild-type counterparts, 6% ([2]; Table 5, 6% w/w): AS/IS; gel formation at the selected concentration ([2]; selected concentration (i.e., at 30%, 20%, 11%, or 6% w/w)): only form aqueous solution or are insoluble |
| [dF][dF]W[dR] [SEQ ID NO:7, reference compound] |  | semisolid gel | form self-assembling gels; also recorded: semisolid gel | SS (SS for semisolid gel) | SS (SS for semisolid gel) | SS (SS for semisolid gel) | gel formation at 3% w/w ([2]; 3% w/w in water): semisolid gel; gel formation in aqueous solution, 3% ([2]; Table 3, 3% w/w): SS (SS for semisolid gel); propensity to form gels, wild-type counterparts, 3% ([2]; Table 5, 3% w/w): SS (An ability to form semisolid gel is represented by an SS); propensity to form gels, wild-type counterparts, 6% ([2]; Table 5, 6% w/w): SS (An ability to form semisolid gel is represented by an SS); propensity to form gels, wild-type counterparts, 11% ([2]; Table 5, 11% w/w): SS (An ability to form semisolid gel is represented by an SS) |
| enfuvirtide |  |  |  |  |  | AS/IS |  |
| miniPEG-K(PAL)GCRFGTCTVQKLAHQIYQFTDKDVAPRSKISP(D-Gln)GY-NH2 [SEQ ID NO:48] |  |  | semisolid gel |  |  | SS (SS for semisolid gel) |  |
